According to PubChem BioAssay (NCI):
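Compound exposure: 48 hours, 5 concentrations, 96-well plates. At the GI50, growth is halved. Definition used: TGI = concentration required for complete inhibition of growth.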

Key:
Assay in all cases: NCI tumour cell line growth inhibition, 48 h
[1] = test system: DMS 114 small cell lung
[2] = test system: KM20L2 colon
[3] = test system: HOP-18 NSCLC
[4] = test system: SNB-78 CNS
[5] = test system: DMS 273 small cell lung
[6] = test system: XF 498 CNS
[7] = test system: M19-MEL melanoma
[8] = test system: RXF 393 renal
[9] = test system: LXFL 529 NSCLC
[10] = test system: DLD-1 colon
[11] = test system: BT-549 breast
[12] = test system: NCI-H226 lung
[13] = test system: MDA-MB-231 breast
[14] = test system: M14 melanoma
[15] = test system: 786-0 renal
[16] = test system: RXF-631 renal
[17] = test system: SN12K1 renal
[18] = test system: P388 leukemia

Compound | TGI [1] [µM] | TGI [2] [µM] | TGI [4] [µM] | TGI [5] [µM] | TGI [8] [µM] | TGI [11] [µM] | TGI [12] [µM] | TGI [13] [µM] | TGI [14] [µM] | TGI [15] [µM] | other results
CC(c1ccccc1)/[N+]([O-])=C/c1ccccc1 (configuration not stated) | > 100 | > 100 | > 100 | > 100 | > 100 |  |  |  |  |  | TGI [3]: > 100 µM; TGI [6]: > 100 µM; TGI [7]: > 100 µM; TGI [9]: > 100 µM; TGI [10]: > 100 µM
C[C@]12CCc3sc(Nc4ccc(O)cc4)nc3C1=CC[C@@H]1[C@@H]2CC[C@]2(C)C(=O)CC[C@@H]12 |  |  |  |  |  | > 100 | 8.52 |  |  |  | GI50 [11]: 3.13 µM; GI50 [12]: 2.86 µM
NC(=S)N/N=C1\c2ccccc2CCC1CCC1(O)CCc2ccccc2C1=O (configuration not stated) |  |  |  |  | 36.3 | 31.6 |  | > 100 | 38 |  | 
CCOP(=O)(CN=C(c1ccccc1)c1ccccc1)OCC |  |  |  |  |  |  | > 100 | > 100 | > 100 |  | 
Cc1ccc(Nc2nc(NS(=O)(=O)c3cc(C(=O)Nc4ccc(Cl)cc4)c(Cl)cc3S)n[nH]2)cc1 |  |  |  |  | > 100 | > 100 |  | > 100 | > 100 |  | 
CCc1nnc(-c2nsc3ccccc23)s1 | > 100 | > 100 | > 100 | > 100 | > 100 |  |  |  | > 100 |  | TGI [3]: > 100 µM; TGI [9]: > 100 µM
O=C(O)CC1(CC(=O)O)Nc2ccccc2SC1=O |  |  |  |  | > 100 | > 100 | > 100 | > 100 | > 100 | > 100 | 
O=C(O)CC1OCC=C2CN3CCC45C6=CC(=O)C(=O)C([N+](=O)[O-])=C6NC4C1C2CC35 (configuration not stated) |  |  |  |  | > 100 | > 100 | > 100 | > 100 | > 100 | > 100 | 
CC(CCC(=O)O)C1CCC2C3C(O)CC4CC(O)CCC4(C)C3CC(O)C12C (configuration not stated) |  |  |  |  | > 100 | > 100 | > 100 | > 100 | > 100 | > 100 | 
COC1=CC(=O)c2c(O)c3c(c(O)c2C1=O)C=C(C)OC3O (configuration not stated) | 2.96 | 10.4 | 4.14 | 2.17 | 3.92 | 3.5 | 8.24 | 5.09 | 0.845 | 10.9 | TGI [6]: 4.72 µM; TGI [7]: 0.502 µM; TGI [9]: 2.7 µM; TGI [10]: 3.87 µM
CN1CCN(c2cc(-c3cc4ccccc4o3)oc(=O)c2C#N)CC1 | > 100 | > 100 | > 100 | > 100 | > 100 |  | 60.7 |  | > 100 |  | TGI [6]: > 100 µM; TGI [9]: > 100 µM; TGI [16]: > 100 µM; TGI [10]: > 100 µM
COc1ccc(-c2c3c(nc4nc(SC)nc(SC)c24)CCCC3)cc1OC |  |  |  |  | > 100 | > 100 | > 100 | > 100 | > 100 |  | 
CC1OC1C(=O)C1(O)C(C)C(O)C23OC2(C(O)c2c(O)cccc2C3=O)C1O (configuration not stated) | 0.191 | 1.14 | 3.46 | 0.551 | 0.599 |  | 0.838 |  |  |  | TGI [3]: 0.489 µM; TGI [6]: 0.961 µM; TGI [7]: 0.526 µM; TGI [17]: 0.889 µM; TGI [18]: 0.345 µM; TGI [10]: 1.7 µM
C/C(=N\NC(=S)Nc1ccc(C)cc1)c1nc2ncccc2[nH]1 |  |  |  |  |  | 11.8 | 8.01 | > 100 |  | 18.7 | 
